Experiments:
HUAECs = assay: Vascular toxicity of terbinafine in static or flow culture (qRT-PCR, ELISA); type: cell-based, human
Procedure: (§1) Fluidic shear stress experiments. HESC-derived ECs (2.6×10^6 cells/mL), HUAECs, HUVECs were seeded on flow chamber untreated-slides (μ-slide 0.4, luer, IBIDI) and grown until confluence. Using a programmed IBIDI pump with positive pressure, the cell monolayer was perfused with EGM-2 medium for 7 days, at flow rate of 15.1 mL/min (corresponding to shear stress of 20 dyne/cm2), or 3.02 mL/min (corresponding to shear stress of 4 dyne/cm2). After 7 days the flow was stopped, the cells imaged, and then stained or collected for posterior gene analysis. Medium was collected for ELISA assays. In some experiments, cells were cultured in medium supplemented with terbinafine (0.1 μM or 1 μM) (Sigma) for a maximum of 24 h, under shear stress. Static controls were performed in the chamber coated-slides but without flow. The IBIDI slides allow a laminar perfusion in rectangular flow geometry.
(§2) Evaluation of the levels of vascular injury by specific markers. ELISA kits analyzed supernatants collected from the shear stress experiments for vWF and vWFpp (Gen-Probe GTI Diagnostic) and ADMA (Enzo Life Sciences), according to manufacturer's recommendations.
Terbinafine is an antifungal agent (inhibitor of ergosterol synthesis) that inhibits angiogenesis by suppressing endothelial cell proliferation, inhibits DNA synthesis and activates EC apoptosis^34, 35. Terbinafine is cytotoxic for HUVECs for concentrations above 120 μM^35. To determine whether the hESC-derived ECs cultured under flow conditions could be used to assess vascular toxicity, cells were cultured for 7 days at 20 dyne/cm2 after which the culture medium was supplemented or not with terbinafine (0.1 and 1 μM) and cells cultured under the same flow conditions for one more day. […] Next, was assessed by qRT-PCR the expression of genes involved in inflammation (ICAM-1; E-selectin), oxidative stress sensing (HO-1) and vasculature modulation (eNOS) in hESC-derived cells and control HUAEC after exposition to terbinafine (FIG. 3B). As expected, the expression of these genes increases under fluidic shear stress^36. […] Upregulation of some genes (HO-1 and E-selectin) was only observed for concentrations of 1 μM in HUAECs. […] ADMA is a naturally occurring amino acid that circulates in plasma and is generated by degradation of methylated proteins. Increase levels of ADMA inhibits nitric oxide (NO) production by competitive inhibition of the physiological substrate L-arginine^38. […]
Next, the vascular damage/injury induced by terbinafine was assessed in hESC-derived ECs and control HUAECs, in the same conditions as before, by measuring the levels of ADMA and the ratio von Willebrand factor pro-peptide (vWFpp): von Willebrand factor (vWF) secreted by these cells (FIG. 3C). […]

hESC-derived ECs = assay: Vascular toxicity of terbinafine in static or flow culture (morphology, qRT-PCR, ELISA); type: cell-based, human
Procedure: as §1, §2
Terbinafine is an antifungal agent (inhibitor of ergosterol synthesis) that inhibits angiogenesis by suppressing endothelial cell proliferation, inhibits DNA synthesis and activates EC apoptosis^34, 35. Terbinafine is cytotoxic for HUVECs for concentrations above 120 μM^35. To determine whether the hESC-derived ECs cultured under flow conditions could be used to assess vascular toxicity, cells were cultured for 7 days at 20 dyne/cm2 after which the culture medium was supplemented or not with terbinafine (0.1 and 1 μM) and cells cultured under the same flow conditions for one more day. […] Next, was assessed by qRT-PCR the expression of genes involved in inflammation (ICAM-1; E-selectin), oxidative stress sensing (HO-1) and vasculature modulation (eNOS) in hESC-derived cells and control HUAEC after exposition to terbinafine (FIG. 3B). As expected, the expression of these genes increases under fluidic shear stress^36. […] Upregulation of some genes (HO-1 and E-selectin) was only observed for concentrations of 1 μM in HUAECs. […] ADMA is a naturally occurring amino acid that circulates in plasma and is generated by degradation of methylated proteins. Increase levels of ADMA inhibits nitric oxide (NO) production by competitive inhibition of the physiological substrate L-arginine^38. Drugs that inhibit NO pathway, upregulate caveolin-1 expression and/or enhance ADMA levels could potentially be associated with drug-induced endothelial dysfunction. Therefore, increased circulating levels of ADMA may serve as predictive marker of EC dysfunction^38. […] Such effect was not observed for HUAECs cultured under the same conditions. […] In addition, hESC-derived ECs are more sensitive to the effect of terbinafine than HUAECs.
Next, the vascular damage/injury induced by terbinafine was assessed in hESC-derived ECs and control HUAECs, in the same conditions as before, by measuring the levels of ADMA and the ratio von Willebrand factor pro-peptide (vWFpp): von Willebrand factor (vWF) secreted by these cells (FIG. 3C). The last 2 proteins with different biological activity are released in equimolar concentrations in plasma and an increased level of both proteins predicts EC activation/injury. […] Remarkably, hESC-derived ECs cultured under flow conditions in the presence of terbinafine secrete higher levels of ADMA and vWFpp:vWF than without the drug. Again, the sensitivity of HUAECs to terbinafine was lower than hESC-derived ECs. The concentration of ADMA secreted by hESC-derived cells at 24 h is 3.5 times higher than in basal conditions. Importantly, this shift in concentration is observed in human patients with cardiovascular diseases. Healthy persons have an average of 0.45±0.19 μmol of ADMA per liter of blood and this value increases 2.2 or 2.7 folds when the patient has idiopathic pulmonary arterial hypertension^37. […]

HUVECs = settings: cited from earlier work
CD31+ cells = assay: Shh and Notch signaling modulators, arterial and venous marker expression in CD31+ cells; type: cell-based, human; settings: for expression of arterial marker EphB2: cyclopamine 5 μM and Notch inhibitor L685458 1 μM together; for expression of arterial EC markers EphB2 (protein level), HEY-2, JAG-1 and EFNB1 (gene level) / expression of venous EC markers Lefty-1 and Lefty-2: purmorphamine 1 μM and DLL4 100 ng/mL together, versus cells without activators
Procedure: hESC culture and differentiation. Undifferentiated hESCs (passages 33-36; H9, WiCell, Wisconsin) or hiPSCs K2 (passages 32-35; cord blood derived iPSCs kindly donated by Ulrich Martin) were grown on an inactivated mouse embryonic fibroblast (MEF) feeder layer, as previously described 1, 2. To induce the formation of EBs, the undifferentiated hESCs were treated with 2 mg/mL type IV collagenase (Invitrogen) for 2 h and then transferred (2:1) to low attachment plates (Corning) containing 10 mL of differentiation medium [80% KO-DMEM, 20% fetal bovine serum (FBS, Invitrogen), 0.5% L-glutamine, 0.2% β-mercaptoethanol, 1% nonessential amino acids]. The differentiation medium was supplemented with VEGF165 (50 ng/mL, Prepotech), Tβ4 (100 ng/mL, Caslo) and SB431542 (10 μM, Tocris) according to the following timeline: [(VEGF165)days0-18+(Tβ4)days4-18+(SB431542)days7-18]. After 4 days in suspension, EBs were plated onto 1% gelatin-coated dishes and grown for 14 additional days. Medium was changed every 2-3 days. To evaluate the contribution of Shh and Notch signaling pathways, the differentiation medium was supplemented with one or two of the following agents: 1 μM purmorphamine (Shh activator; Cayman Chemical), 5 μM cyclopamine (Shh inhibitor; Sigma), 100 ng/ml DLL-4 (Notch activator; Prepotech), or 1 μM Y^−-secretase inhibitor L685458 (Notch inhibitor; Tocris Biosciences) 47.
Arterial and venous gene expression was analyzed in CD31^+ cells at the time of their isolation. […] Because arterial/vein specification during mouse embryogenesis is in large part mediated by Notch and Sonic Hedgehog (Shh), the expression of Notch (Notch1, Notch2, Notch3, Notch4) and Shh (patched 1) receptors as well as Notch (DLL1, DLL3, DLL4, JAG-1, JAG-2) and Shh transcription factors (GLI1 and SMO) in CD31^+ cells was assessed (FIG. 1E). […] Was also studied the involvement of Notch and Shh signaling pathways in the gene expression of arterial and venous markers in cells after CD31^+ cell isolation. The independent activation of each signaling pathway has little impact in the expression of arterial marker EphB2 (FIG. 1F).

[1] = flow conditions, medium supplemented with terbinafine

## CN(C/C=C/C#CC(C)(C)C)Cc1cccc2ccccc12 [terbinafine]
HUAECs; flow 20 dyne/cm2, 24 h
  concentration at which upregulation of some genes (HO-1 and E-selectin) was observed: 1 µM
HUAECs; flow conditions, exposed to terbinafine, ELISA
  secretion of vWFpp:vWF: higher levels
HUAECs; [1]
  decrease in the expression of DDAH1 and DDAH2: not observed
HUAECs; static conditions, ELISA
  secretion of ADMA or vWFpp:vWF versus control conditions: no significant higher secretion
hESC-derived ECs; flow 20 dyne/cm2, terbinafine 0.1 and 1 μM, day 8
  changes in EC morphology and cadherin expression: No significant changes
hESC-derived ECs; flow conditions, ELISA
  secretion of ADMA and vWFpp:vWF versus without the drug: higher levels
hESC-derived ECs; flow conditions, at 24 h, ELISA
  concentration of ADMA secreted, relative to basal conditions: 3.5 times
hESC-derived ECs; [1]
  expression of DDAH1 and DDAH2: significant decrease
hESC-derived ECs; static conditions, ELISA
  secretion of ADMA or vWFpp:vWF versus control conditions: no significant higher secretion
hESC-derived ECs; terbinafine at 0.1 μM, flow 20 dyne/cm2, 24 h
  expression of ICAM-1, E-selectin, HO-1 and eNOS genes (qRT-PCR): higher
HUVECs
  concentrations cytotoxic for HUVECs: above 120 μM

## CC1=C2C[C@H]3[C@@H](CC=C4C[C@@H](O)CC[C@@]43C)[C@@H]2CC[C@]12O[C@@H]1C[C@H](C)CN[C@H]1[C@H]2C [cyclopamine]
CD31+ cells
  expression of arterial marker EphB2: significantly decreased

## CC(C)C[C@H](NC(=O)[C@H](Cc1ccccc1)C[C@@H](O)[C@H](Cc1ccccc1)NC(=O)OC(C)(C)C)C(=O)N[C@@H](Cc1ccccc1)C(N)=O [L685458]
CD31+ cells
  expression of arterial marker EphB2: significantly decreased

## c1ccc2c(Oc3nc(Nc4ccc(N5CCOCC5)cc4)c4ncn(C5CCCCC5)c4n3)cccc2c1 [purmorphamine]
CD31+ cells
  expression of arterial EC markers EphB2 (protein level), HEY-2, JAG-1 and EFNB1 (gene level): significantly increased
  expression of venous EC markers Lefty-1 and Lefty-2: decreased

## DLL4: Notch activator
CD31+ cells
  expression of arterial EC markers EphB2 (protein level), HEY-2, JAG-1 and EFNB1 (gene level): significantly increased
  expression of venous EC markers Lefty-1 and Lefty-2: decreased

From patent US10526580B2, “Differentiated cell population of endothelial cells derived from human pluripotent stem cells, composition, system, kit and uses thereof” (BIOCANT-ASSOCIAÇÃO DE TRANSFERÊNCIA DE TECNOLOGIA, priority 2012, dated 2020)
